Experimental data: patent US20210338846A1, “COMPETITIVE PROSTATE-SPECIFIC MEMBRANE ANTIGEN (PSMA) BINDING AGENTS FOR REDUCTION OF NON-TARGET ORGAN UPTAKE OF RADIOLABELED PSMA INHIBITORS FOR PSMA POSITIVE TUMOR IMAGING AND RADIOPHARMACEUTICAL THERAPY” (The Johns Hopkins University, priority 2018, published 2021)
Read-outs that look alike come from different tables or passages of the source.

Tests used:
PSMA+PiP tumors = conditions: cited from earlier work
[1] = test system: PSMA+ PC-3 PiP and PSMA− PC-3 flu tumors; assay: Biodistribution of [177Lu]VK-03-27 without and with co-injection of competing inhibitor VK-03-27; format: in vivo, mice; conditions: 2 Hour
[2] = test system: PSMA+ PC-3 PiP and PSMA− PC-3 flu tumors; conditions: for Biodistribution: Blood / Biodistribution: Flu tumor / Biodistribution: Lacrimal gland / Biodistribution: PiP tumor / Biodistribution: Salivary gland / Biodistribution: kidneys / Biodistribution: spleen / Biodistribution: stomach: without competitive inhibitor
[3] = test system: PSMA+ PC-3 PiP and PSMA− PC-3 flu tumors; assay: Biodistribution of [177Lu]VK-I-45 without and with co-injection of competing inhibitor [Lu]VK-I-45; format: in vivo, mice; conditions: 2 Hour
Description: VK-01-45 and its Lu-177 complex was reported in international PCT patent application publication no. WO 2017/165473 A, to Ray et al., which is incorporated herein by reference in its entirety. […] This approach can be applied to all compounds in WO 2017/165473 A1, to Ray et al.

[4] = mouse treated with 1.5 MBq; from Kiess et al., 2016; cited from earlier work
[5] = co-injection 0.1 nmole [Lu]VK-I-45
[6] = co-injection 0.5 nmole [Lu]VK-I-45
[7] = co-injection 1.0 nmole [Lu]VK-I-45
[8] = co-injection 5.0 nmole [Lu]VK-I-45

O=C(O)CC[C@H](NC(=O)N[C@@H](CCCCNC(=O)c1ccc(I)cc1)C(=O)O)C(=O)O [YC-I-27]
uptake and retention in kidneys (PSMA+PiP tumors; radiolabeled form, out to two days post-injection): > 100 % ID/g | uptake in PSMA+ PiP tumors (in words) (PSMA+PiP tumors; radiolabeled version): high and prolonged uptake

O=C([O-])CN1CCN(CC(=O)[O-])CCN(C(CCC(=O)NCCCCC(=O)N(CCCC[C@H](NC(=O)N[C@@H](CCC(=O)O)C(=O)O)C(=O)O)Cc2ccc(Br)cc2)C(=O)O)CCN(CC(=O)[O-])CC1.[177Lu+3] (stereo partly drawn) [[^177Lu]VK-03-27]
Biodistribution: Blood ([1]; No CI): 0.43 ± 0.6 % injected dose/gram | Biodistribution: Flu tumor ([1]; No CI): 0.4 ± 0.02 % injected dose/gram | Biodistribution: Lacrimal Glands ([1]; No CI): 1.06 ± 0.37 % injected dose/gram | Biodistribution: PiP tumor ([1]; No CI): 55 ± 12 % injected dose/gram | Biodistribution: Salivary gland ([1]; No CI): 1.2 ± 0.25 % injected dose/gram | Biodistribution: kidneys ([1]; No CI): 140 ± 21 % injected dose/gram | Biodistribution: spleen ([1]; No CI): 8.0 ± 2.8 % injected dose/gram | Biodistribution: stomach ([1]; No CI): 0.44 ± 0.6 % injected dose/gram | Biodistribution: Blood ([1]; co-injection 2 nmole VK-03-27): 0.23 ± 0.5 % injected dose/gram | Biodistribution: Flu tumor ([1]; co-injection 2 nmole VK-03-27): 0.32 ± 0.05 % injected dose/gram | Biodistribution: Lacrimal Glands ([1]; co-injection 2 nmole VK-03-27): 0.29 ± 0.08 % injected dose/gram | Biodistribution: PiP tumor ([1]; co-injection 2 nmole VK-03-27): 37 ± 8 % injected dose/gram | Biodistribution: Salivary gland ([1]; co-injection 2 nmole VK-03-27): 0.24 ± 0.04 % injected dose/gram | Biodistribution: kidneys ([1]; co-injection 2 nmole VK-03-27): 10.6 ± 0.6 % injected dose/gram | Biodistribution: spleen ([1]; co-injection 2 nmole VK-03-27): 0.8 ± 0.17 % injected dose/gram | Biodistribution: stomach ([1]; co-injection 2 nmole VK-03-27): 0.23 ± 0.09 % injected dose/gram | Biodistribution: Blood ([1]; co-injection 20 nmole VK-03-27): 0.25 ± 0.14 % injected dose/gram | Biodistribution: Flu tumor ([1]; co-injection 20 nmole VK-03-27): 0.27 ± 0.05 % injected dose/gram | Biodistribution: Lacrimal Glands ([1]; co-injection 20 nmole VK-03-27): 0.26 ± 0.05 % injected dose/gram | Biodistribution: PiP tumor ([1]; co-injection 20 nmole VK-03-27): 26 ± 4 % injected dose/gram | Biodistribution: Salivary gland ([1]; co-injection 20 nmole VK-03-27): 0.16 ± 0.04 % injected dose/gram | Biodistribution: kidneys ([1]; co-injection 20 nmole VK-03-27): 3.5 ± 0.56 % injected dose/gram | Biodistribution: spleen ([1]; co-injection 20 nmole VK-03-27): 0.39 ± 0.18 % injected dose/gram | Biodistribution: stomach ([1]; co-injection 20 nmole VK-03-27): 0.45 ± 0.35 % injected dose/gram | Biodistribution: Blood ([1]; co-injection 40 nmole VK-03-27): 0.16 ± 0.03 % injected dose/gram | Biodistribution: Flu tumor ([1]; co-injection 40 nmole VK-03-27): 0.25 ± 0.05 % injected dose/gram | Biodistribution: Lacrimal Glands ([1]; co-injection 40 nmole VK-03-27): 0.26 ± 0.11 % injected dose/gram | Biodistribution: PiP tumor ([1]; co-injection 40 nmole VK-03-27): 18 ± 3 % injected dose/gram | Biodistribution: Salivary gland ([1]; co-injection 40 nmole VK-03-27): 0.25 ± 0.21 % injected dose/gram | Biodistribution: kidneys ([1]; co-injection 40 nmole VK-03-27): 2.15 ± 0.1 % injected dose/gram | Biodistribution: spleen ([1]; co-injection 40 nmole VK-03-27): 0.21 ± 0.1 % injected dose/gram | Biodistribution: stomach ([1]; co-injection 40 nmole VK-03-27): 0.42 ± 0.21 % injected dose/gram | Biodistribution: Blood ([2]; 2 Hour): 1.2 ± 1.7 % injected dose/gram | Biodistribution: Flu tumor ([2]; 2 Hour): 5.8 ± 9.6 % injected dose/gram | Biodistribution: Lacrimal gland ([2]; 2 Hour): 5.8 ± 9.6 % injected dose/gram | Biodistribution: PiP tumor ([2]; 2 Hour): 50 ± 14 % injected dose/gram | Biodistribution: Salivary gland ([2]; 2 Hour): 3.4 ± 4.4 % injected dose/gram | Biodistribution: kidneys ([2]; 2 Hour): 150 ± 32 % injected dose/gram | Biodistribution: spleen ([2]; 2 Hour): 7.4 ± 3.0 % injected dose/gram | Biodistribution: stomach ([2]; 2 Hour): 0.66 ± 0.75 % injected dose/gram | Biodistribution: Blood ([2]; 8 Hour): 0.06 ± 0.02 % injected dose/gram | Biodistribution: Flu tumor ([2]; 8 Hour): 0.25 ± 0.05 % injected dose/gram | Biodistribution: Lacrimal gland ([2]; 8 Hour): 0.25 ± 0.05 % injected dose/gram | Biodistribution: PiP tumor ([2]; 8 Hour): 41 ± 9 % injected dose/gram | Biodistribution: Salivary gland ([2]; 8 Hour): 0.34 ± 0.18 % injected dose/gram | Biodistribution: kidneys ([2]; 8 Hour): 52 ± 18 % injected dose/gram | Biodistribution: spleen ([2]; 8 Hour): 1.2 ± 0.6 % injected dose/gram | Biodistribution: stomach ([2]; 8 Hour): 0.32 ± 0.31 % injected dose/gram | Biodistribution: Blood ([2]; 24 Hour): 0.03 ± 0.01 % injected dose/gram | Biodistribution: Flu tumor ([2]; 24 Hour): 0.12 ± 0.02 % injected dose/gram | Biodistribution: Lacrimal gland ([2]; 24 Hour): 0.12 ± 0.02 % injected dose/gram | Biodistribution: PiP tumor ([2]; 24 Hour): 49 ± 7 % injected dose/gram | Biodistribution: Salivary gland ([2]; 24 Hour): 0.16 ± 0.06 % injected dose/gram | Biodistribution: kidneys ([2]; 24 Hour): 5.9 ± 2.7 % injected dose/gram | Biodistribution: spleen ([2]; 24 Hour): 0.28 ± 0.13 % injected dose/gram | Biodistribution: stomach ([2]; 24 Hour): 0.14 ± 0.03 % injected dose/gram | PSMA+ PiP tumor uptake (in words) ([2]; Table 7): high PSMA+PipTumor uptake | renal uptake (in words) ([2]; Table 7): very high early renal uptake

O=C([O-])CN1CCN(CC(=O)[O-])CCN(CC(=O)NCCCCC(=O)N(CCCC[C@H](NC(=O)N[C@@H](CCC(=O)O)C(=O)O)C(=O)O)Cc2ccc(Br)cc2)CCN(CC(=O)[O-])CC1.[177Lu+3] [[^177Lu]VK-I-45]
Biodistribution: Blood ([3]; No CI): 0.1 ± 0.04 % injected dose/gram | Biodistribution: Flu tumor ([3]; No CI): 0.3 ± 0.06 % injected dose/gram | Biodistribution: PiP tumor ([3]; No CI): 39 ± 14 % injected dose/gram | Biodistribution: Salivary gland ([3]; No CI): 0.16 ± 0.07 % injected dose/gram | Biodistribution: kidneys ([3]; No CI): 35 ± 17 % injected dose/gram | Biodistribution: spleen ([3]; No CI): 0.7 ± 0.2 % injected dose/gram | Biodistribution: stomach ([3]; No CI): 0.1 ± 0.04 % injected dose/gram | Biodistribution: Blood [3, 5]: 0.12 ± 0.02 % injected dose/gram | Biodistribution: Flu tumor [3, 5]: 0.4 ± 0.07 % injected dose/gram | Biodistribution: PiP tumor [3, 5]: 38 ± 4 % injected dose/gram | Biodistribution: Salivary gland [3, 5]: 0.16 ± 0.03 % injected dose/gram | Biodistribution: kidneys [3, 5]: 17 ± 11 % injected dose/gram | Biodistribution: spleen [3, 5]: 0.65 ± 0.1 % injected dose/gram | Biodistribution: stomach [3, 5]: 0.2 ± 0.08 % injected dose/gram | Biodistribution: Blood [3, 6]: 0.11 ± 0.04 % injected dose/gram | Biodistribution: Flu tumor [3, 6]: 0.35 ± 0.07 % injected dose/gram | Biodistribution: PiP tumor [3, 6]: 35 ± 8 % injected dose/gram | Biodistribution: Salivary gland [3, 6]: 0.12 ± 0.02 % injected dose/gram | Biodistribution: kidneys [3, 6]: 4.8 ± 1.4 % injected dose/gram | Biodistribution: spleen [3, 6]: 0.32 ± 0.07 % injected dose/gram | Biodistribution: stomach [3, 6]: 0.09 ± 0.02 % injected dose/gram | Biodistribution: Blood [3, 7]: 0.07 ± 0.02 % injected dose/gram | Biodistribution: Flu tumor [3, 7]: 0.2 ± 0.03 % injected dose/gram | Biodistribution: PiP tumor [3, 7]: 20 ± 1.5 % injected dose/gram | Biodistribution: Salivary gland [3, 7]: 0.07 ± 0.01 % injected dose/gram | Biodistribution: kidneys [3, 7]: 1.75 ± 0.32 % injected dose/gram | Biodistribution: spleen [3, 7]: 0.15 ± 0.02 % injected dose/gram | Biodistribution: stomach [3, 7]: 0.13 ± 0.08 % injected dose/gram | Biodistribution: Blood [3, 8]: 0.8 ± 0.04 % injected dose/gram | Biodistribution: Flu tumor [3, 8]: 0.36 ± 0.14 % injected dose/gram | Biodistribution: PiP tumor [3, 8]: 17.3 ± 1.9 % injected dose/gram | Biodistribution: Salivary gland [3, 8]: 0.11 ± 0.04 % injected dose/gram | Biodistribution: kidneys [3, 8]: 1.35 ± 0.44 % injected dose/gram | Biodistribution: spleen [3, 8]: 0.14 ± 0.06 % injected dose/gram | Biodistribution: stomach [3, 8]: 0.2 ± 0.18 % injected dose/gram

O=C(O)CC[C@H](NC(=O)NC(CCCCNC(=O)c1ccc([211At])cc1)C(=O)O)C(=O)O (stereo partly drawn) [[^211At]DCIBzL, (2S)-2-(3-(1-Carboxy-5-(4-[^211At]astatobenzamido)pentyl)ureido)-pentanedioic acid]
renal histopathology [4]: severe renal damage
